The target in assay [1] is T1, GST-RIPK2 fusion protein (human RIPK2, amino acids 1-310) (Homo sapiens, UniProt O43353).
T1 construct: made in house; host or cells: baculovirus infected Sf9 cells
In words: RIPK2 binding competition assay (TR-FRET, Tracer 199 displacement). The conditions noted are these: 10 nM Tracer 199, 1 nM GST-RIPK2, read-out: RIPK2 IC50. Summed up:
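IC50 derived from the TR-FRET emission ratio (665/620 nm, 337 nm excitation), normalized with no-inhibitor and no-enzyme controls. Incubation 45 min at 22 °C, pH 7.5 Tris buffer, with final 10 nM tracer, 1 nM Sf9-expressed GST-RIPK2 fragment (aa 1-310) and 0.5 nM Tb-labelled anti-GST.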

The subject of assay [2] is NF-κB pathway (SEAP) in THP1-Dual cells. In words: THP-1 Dual cell SEAP assay (L18-MDP stimulated). The class given is cell-based. To be noted: Homo sapiens, THP1-Dual, read-out: NF-κB THP1 IC50 bin. Summed up:
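IC50 values derive from non-linear regression of % inhibition, calculated against DMSO/L18-MDP-treated wells after media-only subtraction. NF-κB SEAP activity was read at OD 620-655 nm (QUANTI-Blue, 2 h, 37 °C) from supernatants of THP1-Dual cells. Cells had been compound-treated 30 min before overnight (20-24 h) stimulation with 10 ng/mL final L18-MDP.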

The target of assay [3] is T2, binding of His-XIAP(BIR2)-avi fusion protein to GST-RIPK2 fusion protein (RIPK2/XIAP) (Homo sapiens, UniProt O43353).
T2 construct: made in house; host or cells: baculovirus infected Sf9 cells
In words: RIPK2-XIAP binding competition PPI assay (TR-FRET). To be noted: for IC50: read-out: PPI IC50 bin; for Emax: read-out: PPI Amax bin. In short, it runs like this: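 Compounds (in DMSO, 100-fold stock) incubated 120 min at 23 °C with 1 nM GST-RIPK2 (aa 1-310) and 25 nM His-XIAP(BIR2 aa 152-231)-avi, plus anti-His-XL665 and anti-GST-Tb, in pH 7.5 Tris buffer. Read-out: 665/520 nm emission ratio. Normalized to no-inhibitor (0%) and 50 nM GSK583 (−100%); Amax binned A–D.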

[4] abbreviates: RIPK2/XIAP binding competition PPI assay.
Where [5] appears, read: RIPK2/XIAP binding competition PPI assay, Amax.

Where two headings read alike, the source gives them in different places.

T2 sequence (O43353 1-310 limits assumed): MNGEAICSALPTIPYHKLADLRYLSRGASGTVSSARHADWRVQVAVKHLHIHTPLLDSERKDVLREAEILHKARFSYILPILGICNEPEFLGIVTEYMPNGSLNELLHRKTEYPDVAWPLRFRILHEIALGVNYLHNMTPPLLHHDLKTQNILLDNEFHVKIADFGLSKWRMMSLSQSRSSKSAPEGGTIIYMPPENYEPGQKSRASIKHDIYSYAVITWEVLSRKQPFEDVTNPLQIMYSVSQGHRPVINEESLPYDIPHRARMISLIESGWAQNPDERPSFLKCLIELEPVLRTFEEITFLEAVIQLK
T1 sequence (O43353 1-310): as the sequence (O43353 1-310 limits assumed) above

Consider `CC(C)(C)C(C)(O)c1cn2c(-c3cc(F)c(N)nc3F)cnc2cc1OCCO` (stereo not shown) [Example 189, 2-(3-(6-amino-2,5-difluoropyridin-3-yl)-7-(2-hydroxyethoxy)imidazo[1,2-a]pyridin-6-yl)-3,3-dimethylbutan-2-ol], for which the results for the IC50 in assay [1], in assay [2] and in assay [3] (setting [4]) were above 20 nM, above 1000 nM and above 20 nM, respectively.

Turning to `CCS(=O)(=O)Nc1cc(-c2cnn3cc(OCCO)c(S(=O)(=O)C(C)(C)C)cc23)cc(F)c1OC` [Example 130, N-(5-(5-(tert-butylsulfonyl)-6-(2-hydroxyethoxy)pyrazolo[1,5-a]pyridin-3-yl)-3-fluoro-2-methoxyphenyl)ethanesulfonamide], the IC50 in assay [1] was below 1 nM; in assay [2] it was below 50 nM; in assay [3] (setting [4]), below 1 nM. The Emax in assay [3] (setting [5]) was in the range of 55 to 80%.

Consider `CC(C)(N)COc1cc2ncc(-c3cc(Cl)c(N)nc3F)n2cc1S(=O)(=O)C(C)(C)C` [Example 241, 5-(7-(2-amino-2-methylpropoxy)-6-(tert-butylsulfonyl)imidazo [1,2-a]pyridin-3-yl)-3-chloro-6-fluoropyridin-2-amine], for which the IC50 in assay [1] was in the range of 2.5 to 20 nM; in assay [2] it was 250 to 1000 nM; in assay [3] (setting [4]), 2.5 to 20 nM. For the same compound, the Emax in assay [3] (setting [5]) is above 80%.

Consider `CC(C)(C)S(=O)(=O)c1cn2c(-c3cc(F)c(N)nc3F)cnc2cc1CO` [Example 39, (3-(6-amino-2,5-difluoropyridin-3-yl)-6-(tert-butylsulfonyl)imidazo[1,2-a]pyridin-7-yl)methanol], for which the half-maximal inhibitory concentration (IC50) in assay [1] is above 20 nM; in assay [2] it was above 1000 nM; in assay [3] (setting [4]), above 20 nM. Besides, in assay [3] (setting [5]), the Emax is above 80%.

With `CC(C)(O)COc1cc2ncc(-c3cc(Cl)c(N)nc3F)n2cc1S(=O)(=O)C(C)(C)C` [Example 240, 1-((3-(6-amino-5-chloro-2-fluoropyridin-3-yl)-6-(tert-butylsulfonyl)imidazo [1,2-a]pyridin-7-yl)oxy)-2-methylpropan-2-ol], the IC50 in assay [1] fell in the range of 1 to 2.5 nM; in assay [2], 50 to 250 nM; in assay [3] (setting [4]), 1 to 2.5 nM. Further, the Emax in assay [3] (setting [5]) was above 80%.

`CC(C)(C)S(=O)(=O)c1cn2c(-c3cc(F)c(N)nc3F)cnc2cc1-c1cc[nH]n1` [Example 37, 5-(6-(tert-butylsulfonyl)-7-(1H-pyrazol-3-yl)imidazo[1,2-a]pyridin-3-yl)-3,6-difluoropyridin-2-amine]: the IC50 was above 20 nM in assay [1], above 1000 nM in assay [2] and above 20 nM in assay [3] (setting [4]). Also, in assay [3] (setting [5]), the Emax is above 80%.

On to `COc1cc2ncc(-c3cc(F)c(OC)c4[nH]c(CCO)nc34)n2cc1S(=O)(=O)C(C)(C)C` [Example 184, 2-(4-(6-(tert-butylsulfonyl)-7-methoxyimidazo[1,2-a]pyridin-3-yl)-6-fluoro-7-methoxy-1H-benzo[d]imidazol-2-yl)ethan-1-ol], for which the half-maximal inhibitory concentration (IC50) in assay [1] lay in the range of 1 to 2.5 nM; in assay [2] it was 250 to 1000 nM; in assay [3] (setting [4]) it was 1 to 2.5 nM. Further, the Emax in assay [3] (setting [5]) is 30 to 55%.

For the compound `COc1cc2ncc(-c3cc(N)cc4[nH]ncc34)n2cc1S(=O)(=O)C(C)(C)C` [Example 7, 4-[7-Methoxy-6-(2-methylpropane-2-sulfonyl)imidazo[1,2-a]pyridin-3-yl]-1H-indazol-6-amine], the concentration for half-maximal inhibition (IC50) in assay [1] is above 20 nM; in assay [2] it was above 1000 nM; in assay [3] (setting [4]), above 20 nM. Further, the Emax in assay [3] (setting [5]) fell in the range of 30 to 55%.

Take `CC(C)(C)S(=O)(=O)c1cn2c(-c3cc(F)c(N)nc3F)cnc2cc1OCCO` [Example 12, 2-((3-(6-amino-2,5-difluoropyridin-3-yl)-6-(tert-butylsulfonyl)imidazo[1,2-a]pyridin-7-yl)oxy)ethan-1-ol]: the IC50 in assay [1] is 2.5 to 20 nM; in assay [2], 50 to 250 nM; in assay [3] (setting [4]), 2.5 to 20 nM. The Emax in assay [3] is above 80%.

Turning to `COc1cc2ncc(-c3cc(F)c(N)nc3F)n2cc1S(=O)(=O)C1(C)CCOCC1` [Example 72, 3,6-difluoro-5-(7-methoxy-6-((4-methyltetrahydro-2H-pyran-4-yl)sulfonyl)imidazo[1,2-a]pyridin-3-yl)pyridin-2-amine], the IC50 was above 20 nM in assay [1], above 1000 nM in assay [2] and above 20 nM in assay [3] (setting [4]). Also, the Emax in assay [3] (setting [5]) was above 80%.

With `COc1cc2ncc(-c3cnn4ccccc34)n2cc1S(=O)(=O)C(C)(C)C` [Example 112, 6-(tert-butylsulfonyl)-7-methoxy-3-(pyrazolo[1,5-a]pyridin-3-yl)imidazo[1,2-a]pyridine], the values for the IC50 in assay [1], in assay [2] and in assay [3] (setting [4]) were above 20 nM, above 1000 nM and above 20 nM, respectively. Also, the Emax in assay [3] (setting [5]) is below 30%.

`CCS(=O)(=O)Nc1cc(-c2cnc3cc(OCCO)c(S(=O)(=O)C(C)(C)C)cn23)cc(F)c1OC` [Example 224, N-(5-(6-(tert-butylsulfonyl)-7-(2-hydroxyethoxy)imidazo [1,2-a]pyridin-3-yl)-3-fluoro-2-methoxyphenyl) ethanesulfonamide]: the IC50 in assay [1] was below 1 nM; in assay [2], below 50 nM; in assay [3] (setting [4]), below 1 nM. Besides, in assay [3] (setting [5]), the Emax was above 80%.

`CC(CO)COc1cc2ncc(-c3cc(F)c(N)nc3F)n2cc1S(=O)(=O)C(C)(C)C` (racemic) [Example 174, 3-((3-(6-amino-2,5-difluoropyridin-3-yl)-6-(tert-butylsulfonyl)imidazo[1,2-a]pyridin-7-yl)oxy)-2-methylpropan-1-ol]: the figures for the half-maximal inhibitory concentration (IC50) in assay [1], in assay [2] and in assay [3] (setting [4]) were 1 to 2.5 nM, 50 to 250 nM and 1 to 2.5 nM, respectively. Moreover, the Emax in assay [3] (setting [5]) is above 80%.

In the case of `C[C@H](CO)COc1cc2ncc(-c3cc4cc[nH]c4nc3F)n2cc1S(=O)(=O)C(C)(C)C` [Example 228, (R)-3-((6-(tert-butylsulfonyl)-3-(6-fluoro-1H-pyrrolo[2,3-b]pyridin-5-yl)imidazo[1,2-a]pyridin-7-yl)oxy)-2-methylpropan-1-ol], the IC50 in assay [1] was below 1 nM; in assay [2] it was below 50 nM; in assay [3] (setting [4]) it was below 1 nM. The Emax in assay [3] (setting [5]) was above 80%.

As for `CC(C)(C)S(=O)(=O)c1cn2c(-c3cnc4cn[nH]c4c3)cnc2cc1OCCO` [Example 210, 2-((6-(tert-butylsulfonyl)-3-(1H-pyrazolo[4,3-b]pyridin-6-yl)imidazo[1,2-a]pyridin-7-yl)oxy)ethan-1-ol], the IC50 in assay [1] is above 20 nM; in assay [2], above 1000 nM; in assay [3] (setting [4]), above 20 nM. Further, the Emax in assay [3] (setting [5]) is below 30%.

On to `CCCS(=O)(=O)Nc1cc(-c2cnc3cc(OC)c(C(=O)N4CCNCC4)cn23)cc(F)c1OC` [Example 191, N-(3-fluoro-2-methoxy-5-(7-methoxy-6-(piperazine-1-carbonyl)imidazo[1,2-a]pyridin-3-yl)phenyl)propane-1-sulfonamide], for which the IC50 in assay [1] was 2.5 to 20 nM; in assay [2], above 1000 nM; in assay [3] (setting [4]), 2.5 to 20 nM. In addition, in assay [3] (setting [5]), the Emax was above 80%.

`COc1cc2ncc(-c3cc(F)c(OC)c(NS(=O)(=O)c4cnn(C)c4)c3)n2cc1C1(F)CCN(C)CC1` [Example 234, N-(3-fluoro-5-(6-(4-fluoro-1-methylpiperidin-4-yl)-7-methoxyimidazo[1,2-a]pyridin-3-yl)-2-methoxyphenyl)-1-methyl-1H-pyrazole-4-sulfonamide]: the figures for the IC50 in assay [1], in assay [2] and in assay [3] (setting [4]) were below 1 nM, below 50 nM and below 1 nM, respectively. The Emax in assay [3] (setting [5]) was above 80%.

For orientation: IC50 means the concentration at which inhibition is half-maximal.

(Values after patent US20260137706A1, “METHODS OF TREATING INFLAMMATORY DISEASES” (INTERLINE THERAPEUTICS, INC., priority 2023, published 2026).)
